Source: publication PMC9841576, “Characterisation of C101248: A novel selective THIK-1 channel inhibitor for the modulation of microglial NLRP3-inflammasome” (Neuropharmacology, 2023)

Tests used:
THIK-1 = target: T1, THIK-1 (Homo sapiens, UniProt Q9HB14); assay: Whole-cell manual patch clamp of HEK-hTHIK-1 cells with rapid perfusion exchanger; type: cell-based; conditions: current at 50 mV
T1 construct: expressed in transfected cells
T1 sequence (Q9HB14 1-408): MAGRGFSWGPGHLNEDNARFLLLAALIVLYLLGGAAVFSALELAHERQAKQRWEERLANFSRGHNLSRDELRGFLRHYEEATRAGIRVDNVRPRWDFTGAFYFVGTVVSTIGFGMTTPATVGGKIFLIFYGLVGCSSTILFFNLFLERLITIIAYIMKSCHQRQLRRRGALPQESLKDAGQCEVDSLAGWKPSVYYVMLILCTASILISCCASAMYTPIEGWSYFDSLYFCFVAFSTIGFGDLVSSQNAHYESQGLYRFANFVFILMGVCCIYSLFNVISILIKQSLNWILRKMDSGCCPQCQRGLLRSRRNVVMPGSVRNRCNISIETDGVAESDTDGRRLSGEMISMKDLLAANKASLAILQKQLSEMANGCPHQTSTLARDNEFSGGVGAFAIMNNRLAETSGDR
Description: Cells were plated onto uncoated, sterile glass coverslips at a density of 1 × 10^6 cells/ml in a droplet of approximately 200 μl and incubated at 37 °C/5% CO2 before use at least 24 h later. Coverslips were transferred to the microscope stage chamber and cells visualised under IR-DIC illumination. The chamber was gravity perfused with a solution containing (in mM): 140 NaCl, 2.5 KCl, 10 HEPES, 1 NaH2PO4.H20, 2 CaCl2, 1 MgCl2, 10 glucose, with pH adjusted to 7.4 using NaOH and osmolarity adjusted to 320 mOsM using sucrose. The chamber was fed from a rapid perfusion exchanger, which continuously perfused square, multi-barrelled glass tubes, using laminar flow. Cells were patched using micropipettes filled with a solution containing (in mM): 125 KCl, 4 NaCl, 1 CaCl2, 10 HEPES, 10 EGTA, 4 MgATP, 2 Na2ATP, 2 MgCl2, 0.5 Na2GTP, pH adjusted to 7.1 with KOH and osmolarity adjusted to 320 mOsm with sucrose. The liquid junction potential was calculated to be 4.8 mV and was not corrected for. […] The current at 50 mV from each sweep was measured and plotted against time. Curves were fitted in GraphPad Prism to a one phase decay [Y= IF(X < X0, Y0, Plateau+(Y0-Plateau)*exp(-K*(X-X0))), where x = time, y = Y0 until X = X0 then decays down to plateau with one phase, K = rate constant]. τ values were calculated to determine the activation time constant.

[1] = tested on: Calcium Channel L-Type, Benzothiazepine; assay: Promiscuity screening panel, radiometric binding; conditions: Rat
Description: (§1) C101248 was further profiled in a promiscuity screening panel, using radiometric binding assays, against a selection of 18 diverse targets at 10 μM (Supplementary Table 2).
(§2) Supplementary Table 2: Promiscuity screening panel data for C101248. Compound was screened at 10 µM, in duplicate, using radiometric binding assays

[2] = tested on: Adrenergic α1, Non-Selective; assay: Promiscuity screening panel, radiometric binding; conditions: Rat
Description: as §1, §2

Cannabinoid CB1 = Cannabinoid CB1 (Homo sapiens, UniProt P21554); assay: Promiscuity screening panel, radiometric binding; conditions: read-out: % inhibition at 10 µM (n=2)
Description: as §1, §2

Muscarinic M1 = Muscarinic M1 (Homo sapiens, UniProt P11229); assay: Promiscuity screening panel, radiometric binding; conditions: read-out: % inhibition at 10 µM (n=2)
Description: as §1, §2

Androgen (Testosterone) = Androgen (Testosterone) (Homo sapiens, UniProt P10275); assay: Promiscuity screening panel, radiometric binding; conditions: read-out: % inhibition at 10 µM (n=2)
Description: as §1, §2

Dopamine D1 = Dopamine D1 (Homo sapiens, UniProt P21728); assay: Promiscuity screening panel, radiometric binding; conditions: read-out: % inhibition at 10 µM (n=2)
Description: as §1, §2

[3] = target: Serotonin (5-Hydroxytryptamine) 5-HT2B (Homo sapiens, UniProt P41595); assay: Promiscuity screening panel, radiometric binding; conditions: read-out: % inhibition at 10 µM (n=2)
Description: as §1, §2

[4] = target: Transporter, Serotonin (5-Hydroxytryptamine) (SERT) (Homo sapiens, UniProt P31645); assay: Promiscuity screening panel, radiometric binding; conditions: read-out: % inhibition at 10 µM (n=2)
Description: as §1, §2

Sodium Channel, Site 2 = assay: Promiscuity screening panel, radiometric binding; conditions: Site 2, Rat
Description: as §1, §2

[5] = target: Transporter, Norepinephrine (NET) (Homo sapiens, UniProt P23975); assay: Promiscuity screening panel, radiometric binding; conditions: read-out: % inhibition at 10 µM (n=2)
Description: as §1, §2

Calcium Channel CaV1.2 = Calcium Channel CaV1.2 (Homo sapiens, UniProt Q13936); assay: Promiscuity screening panel, radiometric binding; conditions: read-out: % inhibition at 10 µM (n=2)
Description: as §1, §2

Histamine H1 = Histamine H1 (Homo sapiens, UniProt P35367); assay: Promiscuity screening panel, radiometric binding; conditions: read-out: % inhibition at 10 µM (n=2)
Description: as §1, §2

[6] = tested on: GABAA, Flunitrazepam, Central; assay: Promiscuity screening panel, radiometric binding; conditions: Rat
Description: as §1, §2

Opiate μ (OP3, MOP) = Opiate μ (OP3, MOP) (Homo sapiens, UniProt P35372); assay: Promiscuity screening panel, radiometric binding; conditions: read-out: % inhibition at 10 µM (n=2)
Description: as §1, §2

Phosphodiesterase PDE3 = assay: Promiscuity screening panel, radiometric binding; conditions: Phosphodiesterase PDE3, Human
Description: as §1, §2

Adrenergic β2 = Adrenergic β2 (Homo sapiens, UniProt P07550); assay: Promiscuity screening panel, radiometric binding; conditions: read-out: % inhibition at 10 µM (n=2)
Description: as §1, §2

Cannabinoid CB2 = Cannabinoid CB2 (Homo sapiens, UniProt P34972); assay: Promiscuity screening panel, radiometric binding; conditions: read-out: % inhibition at 10 µM (n=2)
Description: as §1, §2

Chain of Cannabinoid CB2 (P34972 whole entry): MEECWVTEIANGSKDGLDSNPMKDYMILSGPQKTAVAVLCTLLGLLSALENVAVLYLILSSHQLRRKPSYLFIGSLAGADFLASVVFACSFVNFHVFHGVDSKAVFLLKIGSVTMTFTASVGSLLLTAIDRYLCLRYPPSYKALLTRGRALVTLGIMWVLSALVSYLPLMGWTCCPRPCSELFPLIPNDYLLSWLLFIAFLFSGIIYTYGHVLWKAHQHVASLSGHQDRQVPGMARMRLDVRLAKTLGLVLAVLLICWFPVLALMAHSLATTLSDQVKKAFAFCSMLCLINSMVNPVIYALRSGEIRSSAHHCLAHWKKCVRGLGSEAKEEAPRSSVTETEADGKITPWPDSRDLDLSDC
Chain of Transporter, Serotonin (5-Hydroxytryptamine) (SERT) (P31645 whole entry): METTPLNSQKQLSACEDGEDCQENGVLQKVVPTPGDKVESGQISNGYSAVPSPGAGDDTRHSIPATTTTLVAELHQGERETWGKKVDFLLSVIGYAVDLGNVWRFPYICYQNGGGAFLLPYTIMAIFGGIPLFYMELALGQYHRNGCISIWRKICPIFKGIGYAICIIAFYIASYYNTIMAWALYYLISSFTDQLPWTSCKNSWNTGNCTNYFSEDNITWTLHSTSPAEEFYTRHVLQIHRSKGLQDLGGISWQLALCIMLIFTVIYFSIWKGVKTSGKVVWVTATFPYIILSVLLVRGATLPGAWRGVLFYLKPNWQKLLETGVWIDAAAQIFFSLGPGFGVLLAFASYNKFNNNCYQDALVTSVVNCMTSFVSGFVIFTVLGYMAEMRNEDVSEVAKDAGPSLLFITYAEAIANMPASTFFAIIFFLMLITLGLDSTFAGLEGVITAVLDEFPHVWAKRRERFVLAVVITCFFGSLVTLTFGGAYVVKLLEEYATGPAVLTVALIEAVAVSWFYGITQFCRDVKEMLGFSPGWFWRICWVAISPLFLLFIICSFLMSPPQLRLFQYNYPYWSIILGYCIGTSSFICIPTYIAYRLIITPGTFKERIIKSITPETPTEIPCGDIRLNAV
Chain of Cannabinoid CB1 (P21554 whole entry): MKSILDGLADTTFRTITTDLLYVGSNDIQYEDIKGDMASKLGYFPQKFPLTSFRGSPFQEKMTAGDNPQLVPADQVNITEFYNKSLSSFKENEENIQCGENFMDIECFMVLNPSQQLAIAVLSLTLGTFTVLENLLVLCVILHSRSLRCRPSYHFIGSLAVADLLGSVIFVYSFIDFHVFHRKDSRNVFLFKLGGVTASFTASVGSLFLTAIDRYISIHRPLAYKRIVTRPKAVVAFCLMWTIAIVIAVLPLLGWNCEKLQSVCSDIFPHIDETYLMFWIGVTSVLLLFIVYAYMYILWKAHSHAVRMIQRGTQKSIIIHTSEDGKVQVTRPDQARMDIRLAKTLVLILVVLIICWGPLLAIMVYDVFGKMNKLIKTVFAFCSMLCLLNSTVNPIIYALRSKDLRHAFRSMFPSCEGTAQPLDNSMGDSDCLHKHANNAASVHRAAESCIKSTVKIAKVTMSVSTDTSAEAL
Chain of Androgen (Testosterone) (P10275 whole entry): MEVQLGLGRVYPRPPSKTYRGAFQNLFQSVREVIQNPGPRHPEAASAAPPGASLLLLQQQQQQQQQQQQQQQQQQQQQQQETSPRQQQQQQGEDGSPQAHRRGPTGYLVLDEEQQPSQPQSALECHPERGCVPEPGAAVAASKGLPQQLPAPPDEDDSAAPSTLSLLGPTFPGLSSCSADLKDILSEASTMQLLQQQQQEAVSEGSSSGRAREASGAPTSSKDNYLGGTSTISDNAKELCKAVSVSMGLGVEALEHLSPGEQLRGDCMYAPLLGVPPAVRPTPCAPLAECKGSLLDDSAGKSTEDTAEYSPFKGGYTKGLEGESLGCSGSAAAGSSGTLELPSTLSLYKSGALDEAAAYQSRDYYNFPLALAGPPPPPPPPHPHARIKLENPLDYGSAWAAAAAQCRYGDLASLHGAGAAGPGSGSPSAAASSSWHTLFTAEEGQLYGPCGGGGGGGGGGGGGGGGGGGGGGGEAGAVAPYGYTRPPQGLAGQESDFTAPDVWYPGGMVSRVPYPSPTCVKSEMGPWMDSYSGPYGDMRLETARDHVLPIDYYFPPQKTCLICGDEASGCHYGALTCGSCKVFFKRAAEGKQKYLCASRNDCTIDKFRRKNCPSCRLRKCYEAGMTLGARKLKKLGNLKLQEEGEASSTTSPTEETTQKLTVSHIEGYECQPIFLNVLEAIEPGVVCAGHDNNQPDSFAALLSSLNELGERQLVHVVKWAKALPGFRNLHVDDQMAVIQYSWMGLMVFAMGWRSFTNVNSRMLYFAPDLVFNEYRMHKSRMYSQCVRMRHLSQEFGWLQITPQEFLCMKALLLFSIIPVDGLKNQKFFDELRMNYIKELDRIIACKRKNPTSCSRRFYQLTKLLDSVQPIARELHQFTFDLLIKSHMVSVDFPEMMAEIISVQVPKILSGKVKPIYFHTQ
Chain of Transporter, Norepinephrine (NET) (P23975 whole entry): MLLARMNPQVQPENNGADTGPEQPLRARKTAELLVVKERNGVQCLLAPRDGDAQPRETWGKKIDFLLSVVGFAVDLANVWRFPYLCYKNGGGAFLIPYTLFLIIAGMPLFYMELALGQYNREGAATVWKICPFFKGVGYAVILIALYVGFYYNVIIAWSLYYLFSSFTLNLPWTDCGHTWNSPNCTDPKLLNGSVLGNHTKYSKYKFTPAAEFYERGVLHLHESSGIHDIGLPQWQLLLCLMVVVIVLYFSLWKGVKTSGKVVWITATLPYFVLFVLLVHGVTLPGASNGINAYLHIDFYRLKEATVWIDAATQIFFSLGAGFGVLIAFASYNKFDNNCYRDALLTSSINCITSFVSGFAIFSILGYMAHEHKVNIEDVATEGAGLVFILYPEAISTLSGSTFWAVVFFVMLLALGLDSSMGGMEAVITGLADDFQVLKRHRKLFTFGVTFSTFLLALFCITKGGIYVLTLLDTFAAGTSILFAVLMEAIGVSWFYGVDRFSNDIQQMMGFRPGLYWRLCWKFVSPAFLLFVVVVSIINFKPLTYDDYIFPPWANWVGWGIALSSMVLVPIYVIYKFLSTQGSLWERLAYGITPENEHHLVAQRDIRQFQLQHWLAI
Chain of Histamine H1 (P35367 whole entry): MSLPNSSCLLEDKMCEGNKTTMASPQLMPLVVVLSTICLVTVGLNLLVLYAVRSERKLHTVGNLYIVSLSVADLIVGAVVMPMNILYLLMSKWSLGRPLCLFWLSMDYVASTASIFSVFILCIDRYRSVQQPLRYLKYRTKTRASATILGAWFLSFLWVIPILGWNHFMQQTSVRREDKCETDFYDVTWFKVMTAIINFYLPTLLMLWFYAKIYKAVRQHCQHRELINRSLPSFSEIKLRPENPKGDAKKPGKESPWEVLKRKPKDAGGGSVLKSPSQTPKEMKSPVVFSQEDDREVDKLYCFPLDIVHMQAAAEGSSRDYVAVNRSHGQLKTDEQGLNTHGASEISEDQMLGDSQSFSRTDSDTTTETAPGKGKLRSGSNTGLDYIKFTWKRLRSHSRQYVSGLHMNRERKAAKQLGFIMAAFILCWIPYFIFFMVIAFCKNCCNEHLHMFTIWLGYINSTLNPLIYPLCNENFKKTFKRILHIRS
Chain of Muscarinic M1 (P11229 whole entry): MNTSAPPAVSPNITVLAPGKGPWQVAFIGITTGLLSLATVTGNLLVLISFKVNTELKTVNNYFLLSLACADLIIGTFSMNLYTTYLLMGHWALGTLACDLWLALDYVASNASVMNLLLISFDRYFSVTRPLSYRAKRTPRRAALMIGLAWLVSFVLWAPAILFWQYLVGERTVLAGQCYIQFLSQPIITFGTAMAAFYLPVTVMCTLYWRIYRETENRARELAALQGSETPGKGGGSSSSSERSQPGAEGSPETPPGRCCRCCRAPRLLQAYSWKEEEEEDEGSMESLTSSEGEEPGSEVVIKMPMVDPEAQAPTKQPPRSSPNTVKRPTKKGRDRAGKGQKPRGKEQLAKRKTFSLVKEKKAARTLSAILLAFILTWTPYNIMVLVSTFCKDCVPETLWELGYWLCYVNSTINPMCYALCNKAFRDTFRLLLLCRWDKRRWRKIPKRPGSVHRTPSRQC
Chain of Serotonin (5-Hydroxytryptamine) 5-HT2B (P41595 whole entry): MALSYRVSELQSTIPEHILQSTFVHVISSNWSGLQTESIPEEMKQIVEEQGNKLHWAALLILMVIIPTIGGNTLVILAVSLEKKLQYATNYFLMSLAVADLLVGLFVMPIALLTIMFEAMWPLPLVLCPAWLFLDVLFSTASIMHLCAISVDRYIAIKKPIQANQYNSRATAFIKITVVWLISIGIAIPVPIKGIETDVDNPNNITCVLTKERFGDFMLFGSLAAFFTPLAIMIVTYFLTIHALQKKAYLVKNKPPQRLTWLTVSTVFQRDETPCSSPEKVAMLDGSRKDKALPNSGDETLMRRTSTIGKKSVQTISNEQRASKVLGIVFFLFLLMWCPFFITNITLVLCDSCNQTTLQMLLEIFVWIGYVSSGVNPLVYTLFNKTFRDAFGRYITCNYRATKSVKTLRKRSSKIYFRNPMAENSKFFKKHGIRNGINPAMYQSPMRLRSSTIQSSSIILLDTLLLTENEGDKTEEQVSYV
Chain of Dopamine D1 (P21728 whole entry): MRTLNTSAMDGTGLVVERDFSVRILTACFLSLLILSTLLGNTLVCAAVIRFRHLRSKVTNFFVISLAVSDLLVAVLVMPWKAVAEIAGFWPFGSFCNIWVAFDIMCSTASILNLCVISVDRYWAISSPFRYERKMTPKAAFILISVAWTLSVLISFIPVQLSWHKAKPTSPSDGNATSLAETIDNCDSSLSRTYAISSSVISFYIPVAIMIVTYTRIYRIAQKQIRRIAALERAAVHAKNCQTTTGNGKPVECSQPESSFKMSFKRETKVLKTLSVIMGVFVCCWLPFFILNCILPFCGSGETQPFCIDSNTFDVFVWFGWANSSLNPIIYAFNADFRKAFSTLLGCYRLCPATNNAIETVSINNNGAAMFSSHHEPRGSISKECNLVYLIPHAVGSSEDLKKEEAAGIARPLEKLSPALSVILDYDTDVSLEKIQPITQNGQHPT

activation time constant (τ) (THIK-1; 0.5 μM): 217.4 ± 61.4 s
activation time constant (τ) (THIK-1; 5 μM): 83.4 ± 17.2 s
% inhibition at 10 µM (n=2) [1]: 3%
% inhibition at 10 µM (n=2) [2]: 12%
inhibition at 10 µM (Cannabinoid CB1): 22%
inhibition at 10 µM (Muscarinic M1): -3%
inhibition at 10 µM (Androgen (Testosterone)): 6%
inhibition at 10 µM (Dopamine D1): -1%
inhibition at 10 µM [3]: 24%
inhibition at 10 µM [4]: -7%
% inhibition at 10 µM (n=2) (Sodium Channel, Site 2): 2%
inhibition at 10 µM [5]: 23%
inhibition at 10 µM (Histamine H1): 21%
% inhibition at 10 µM (n=2) [6]: -9%
inhibition at 10 µM (Opiate μ (OP3, MOP)): -9%
% inhibition at 10 µM (n=2) (Phosphodiesterase PDE3): 1%
inhibition at 10 µM (Adrenergic β2): 15%
inhibition at 10 µM (Cannabinoid CB2): 0%
SMILES: Nc1nonc1-c1nc2ccccc2n1Cc1ccncc1 [C101248]
inhibition at 10 µM (Calcium Channel CaV1.2): 12%
